{"source": "patent US10731159B2", "about": "“Cationic lipid” (DAIICHI SANKYO COMPANY, LIMITED, priority 2013, dated 2020)", "key": {"human β-catenin gene [1]": {"system": "human β-catenin gene", "assay": "Test Example 1: β-catenin gene expression inhibition in SW480 cells, 3 days, real-time PCR", "type": "cell-based", "conditions": "nucleic acid lipid particle of Example 31 containing the named lipid, double-stranded polynucleotide concentration, read-out: β-catenin gene expression inhibitory activity IC50", "procedure": "As described below, the strength of human β-catenin gene expression inhibitory activity was compared among nucleic acid lipid particles each prepared using a novel lipid.\n(§1) The concentration of a human colorectal cancer SW480 cell line (derived from human colorectal adenocarcinoma) was adjusted to 50,000 cells/mL in an RPMI1640 medium (manufactured by Invitrogen Corp.) containing 10% fetal bovine serum (culture medium). Then, the resulting culture solution was inoculated at 100 μL/well to a 96-well flat-bottomed plate (manufactured by Corning Inc./Falcon) and cultured at 37° C. for 1 day under 5.0% CO2. The nucleic acid lipid particle dispersion prepared in Example 31 was diluted with a culture medium to prepare dilution series having final double-stranded polynucleotide concentrations of 30, 3.0, 0.3, and 0.03 nM in the medium. Then, each dilution was added to the cells after removal of the culture supernatant, and the culture was further continued for 3 days. This operation was performed at N=3 for each concentration.\n(§2) A lysate and cDNA for real-time PCR measurement were prepared from the transfected cells using TaqMan® Fast-Cells-to-Ct kit (Life Technologies, Inc./Ambion) according to the instruction manual. In the lysate preparation, Lysis Solution supplemented with DNase I was used. The probes for real-time PCR used were TaqMan® Gene Expression Assays (CTNNB1, FAM probe) (Hs00355045_m1, manufactured by Applied Biosystems, Inc.) for the human β-catenin gene and a human GAPDH gene probe as an internal standard (VIC probe, Hs99999905_m1, manufactured by Applied Biosystems, Inc.). 5 μL of TaqMan® Fast Advanced Master Mix, 2 μL of RNase-Free Water, 0.5 μL of each gene probe, and 2 μL of the prepared cDNA solution were added per well of a 384-well PCR plate (manufactured by Applied Biosystems, Inc.) to bring the total amount to 10 μL, which was then loaded in ViiA™ 7 Real-time PCR system (manufactured by Applied Biosystems, Inc.) and subjected to PCR under conditions given below. The real-time PCR was carried out at N=4 for the cDNA prepared from the lysate.\nPCR initial activation: 95° C. for 20 seconds\nPCR: 95° C. for 1 second • 62° C. for 20 seconds\nThis PCR cycle was repetitively performed 40 times.\n(§3) The quantitative analysis was conducted by the ΔΔCt method."}, "human β-catenin gene [2]": {"system": "human β-catenin gene", "assay": "Test Example 8: β-catenin gene expression inhibition in SW480 cells, procedures of Test Example 3, 50-0.05 nM", "type": "cell-based", "conditions": "procedures of Test Example 3, 50, 5, 0.5, 0.05 nM, particles of Example 55, read-out: β-catenin gene expression inhibitory activity IC50", "procedure": "as §1, with “to 50000” for “to 50,000”, “in a” for “in an”, “lipid particle-containing” for “lipid particle”, “30, 3,” for “30, 3.0,”, “for 4 hours.” for “for 3 days.”\nas §2, §3\nBy the same procedures as in Test Example 3, SW480 cells were treated with 50 nM, 5 nM, 0.5 nM, and 0.05 nM each of nucleic acid lipid particles each prepared using a novel lipid, and the strength of human β-catenin gene expression inhibitory activity was compared among these particles."}}}
{"molecule": "CCCCC/C=C\\C/C=C\\CCCCCCCCC(CCCCCCCC/C=C\\C/C=C\\CCCCC)OC(=O)OCCN(C)C", "note": "[Reference Example 2, 2-(Dimethylamino)ethyl(6Z,9Z,28Z,31Z)-heptatriaconta-6,9,28,31-tetraen-19-yl Carbonate, reference compound]", "values": [{"measurement": "IC50", "setting": "human β-catenin gene [1]", "result": "> 30", "unit": "nM"}, {"measurement": "IC50", "setting": "human β-catenin gene [2]", "result": "> 50", "unit": "nM"}]}
